Test results from US7939510B2, “Di(uridine 5′-)tetraphosphate and salts thereof” (priority 1997, dated 2011).
Like-named read-outs stand apart in the source and are kept apart here.

Columns and labels:
[1] = assay type: physicochemical
Experimental: The maximum solubility in water was thus determined to be ca. 900 mg/mL. […] The tetrasodium salt of P^1,P^4-di(uridine 5′-) tetraphosphate was thus determined to have an excellent solubility and stability profile suitable for pharmaceutical applications. […]

rabbits = assay: Local ocular tolerance and subchronic ocular toxicity study in rabbits; assay type: in vivo; details: multiple daily administrations over six weeks
Excerpt: (§1) A study in rabbits examined local ocular tolerance and subchronic ocular toxicity after multiple daily administrations over a six-week period.
(§2) A study in rabbits examines local ocular tolerance and subchronic ocular toxicity after multiple daily administrations over a six-week period.

[2] = Nonclinical toxicologic profile (overall conclusion from the toxicity studies)
Excerpt: as §1, §2

rat = assay: Single-dose acute inhalation toxicity study in rat; assay type: in vivo; details: rats
dog = assay: Single-dose acute inhalation toxicity study in dog; assay type: in vivo; details: dogs
dogs = assay: Single-dose acute intravenous toxicity study in dogs; assay type: in vivo
[3] = system: normal healthy male volunteers; assay type: in vivo, human
Experimental: Forty non-smokers and 35 smokers were evaluated in 5 dosing cohorts of 16 volunteers, comprised of 12 receiving a single aerosolized dose of P^1,P^4-di(uridine 5′-) tetraphosphate, tetrasodium salt (20-400 mg) and 4 receiving placebo (normal saline).

| Substance | stability profile [1] | adverse findings in ocular toxicology studies (rabbits; present-tense example) | toxicology profile ([2]; present-tense example) | also measured |
| --- | --- | --- | --- | --- |
| P^1,P^4-di(uridine 5′-)tetraphosphate, tetrapotassium salt | excellent | No adverse findings | excellent toxicology profile with a wide safety margin | – |
| P^1,P^4-di(uridine 5′-)tetraphosphate, tetrasodium salt | excellent | – | – | degradation [1]: less than 1.5%; maximum solubility in water [1]: ca. 900 mg/mL; solubility profile [1]: excellent; adverse findings in ocular toxicology studies (rabbits): No adverse findings; acute toxicity (rat): low degree of acute toxicity; acute toxicity (dog): low degree of acute toxicity; acute toxicity (dogs): low degree of acute toxicity; stimulating the expectoration of sputum compared to placebo ([3]; conclusion): effective; safety and tolerability ([3]; in vivo): safe and well-tolerated; effect to induce the expectoration of sputum ([3]; non-smokers): observed; stimulation of sputum expectoration over the next hour of sputum collection ([3]; smokers): sustained; toxicology profile [2]: excellent toxicology profile with a wide safety margin |
| P^1,P^4-di(uridine 5′-)tetraphosphate, monolithiummonopotassiumdisodium salt | excellent | – | – | – |
| P^1,P^4-di(uridine 5′-)tetraphosphate, disodiumdipotassium salt | excellent | No adverse findings | excellent toxicology profile with a wide safety margin | – |
| P^1,P^4-di(uridine 5′-)tetraphosphate, monopotassiumtrilithium salt | excellent | No adverse findings | excellent toxicology profile with a wide safety margin | – |
| P^1,P^4-di(uridine 5′-)tetraphosphate, tetralithium salt | excellent | No adverse findings | excellent toxicology profile with a wide safety margin | – |
